Reference: PMC11076327, “CXCR2 antagonist navarixin in combination with pembrolizumab in select advanced solid tumors: a phase 2 randomized trial” (Investigational New Drugs, 2024)

What was measured:
[1] = Navarixin pharmacokinetics in combination with pembrolizumab; format: in vivo, human; conditions: for tlast: median (range); for AUC(0-inf) / AUC(0-t) / Cmax: human, plasma, oral, geometric mean (% geometric CV); for Geometric mean trough concentration: all tumor types combined
Source text: Primary endpoints were objective response rate (ORR; proportion of patients with confirmed complete or partial response) by RECIST v1.1 as assessed by the investigator and safety based on the occurrence of dose-limiting toxicities (DLTs), adverse events (AEs), and treatment discontinuations because of AEs. Secondary endpoints included investigator-assessed ORR by immune-related RECIST (iRECIST), investigator-assessed progression-free survival (PFS; time from first dose of study drug until the first documented disease progression or death from any cause) by RECIST v1.1 and iRECIST, overall survival (OS; time from first dose of study drug until death from any cause), pharmacodynamics (assessed via changes in ANC), and PK of navarixin when administered in combination with pembrolizumab.
Blood samples for assessment of ANC were collected predose on day 1 of every cycle; between 6 and 12 hours after dosing on days 1, 3, and 8 of cycle 1; and between 6 and 12 hours after dosing on day 1 of cycle 2. Blood samples for assessment of navarixin pharmacokinetic parameters were collected predose and at 1, 2, 4, 6, and between 8 and 12 hours after dosing on day 1 of cycle 1; predose and between 6 and 12 hours after dosing on days 3 and 8 of cycle 1; predose and at 1, 2, 4, 6, and between 8 and 12 hours after dosing on day 1 of cycle 2; and predose during cycles 3 and 4. […]

[2] = tested on: absolute neutrophil count (ANC) and sputum neutrophil count; design: method as in PMID 25695403, PMID 22702508; conditions: patients with chronic obstructive pulmonary disease and asthma; ref [10], [11]; cited from earlier work
[3] = tested on: metastatic castration-resistant prostate cancer (CRPC) preclinical models; design: method as in PMID 31801883; conditions: ref [6]; cited from earlier work
CRC = CRC in vivo; ref [13], [14]; cited from earlier work
melanoma = melanoma in vivo; ref [13], [14]; cited from earlier work
[4] = tested on: triple-negative breast cancer cells; design: method as in PMID 30396947, PMID 29749433; conditions: ref [15], [16]; cited from earlier work
[5] = tested on: pancreatic ductal adenocarcinoma cells; design: method as in PMID 30396947, PMID 29749433; conditions: ref [15], [16]; cited from earlier work
liver metastases = tested on: liver metastases; design: method as in PMID 21035946; conditions: liver metastases in vivo; ref [17]; cited from earlier work
[6] = tested on: metastatic triple-negative breast cancer; design: method as in PMID 34476645; conditions: in combination with paclitaxel; ref [35]; cited from earlier work
[7] = tested on: treatment-refractory metastatic CRPC; design: method as in PMID 31774688; conditions: pembrolizumab monotherapy, 9/199, ref [22]; cited from earlier work
[8] = tested on: mismatch repair–proficient CRC; design: method as in PMID 26028255; conditions: 18 patients with mismatch repair–proficient CRC; ref [21]; cited from earlier work
[9] = tested on: previously treated advanced NSCLC; design: method as in PMID 31154919; conditions: pembrolizumab monotherapy; previously treated advanced NSCLC cohort; 103/449; ref [24]; cited from earlier work
[10] = CRPC, navarixin 30 mg + pembrolizumab 200 mg, Cycle 1 day 1, n=20
[11] = CRPC, navarixin 30 mg + pembrolizumab 200 mg, Cycle 2 day 1 (steady state), n=18
[12] = CRPC, navarixin 100 mg + pembrolizumab 200 mg, Cycle 1 day 1, n=20
[13] = CRPC, navarixin 100 mg + pembrolizumab 200 mg, Cycle 2 day 1 (steady state), n=17
[14] = MSS CRC, navarixin 30 mg + pembrolizumab 200 mg, Cycle 1 day 1, n=19
[15] = MSS CRC, navarixin 30 mg + pembrolizumab 200 mg, Cycle 2 day 1 (steady state), n=15
[16] = MSS CRC, navarixin 100 mg + pembrolizumab 200 mg, Cycle 1 day 1, n=21
[17] = MSS CRC, navarixin 100 mg + pembrolizumab 200 mg, Cycle 2 day 1 (steady state), n=18
[18] = NSCLC, navarixin 30 mg + pembrolizumab 200 mg, Cycle 1 day 1, n=12
[19] = NSCLC, navarixin 30 mg + pembrolizumab 200 mg, Cycle 2 day 1 (steady state), n=12
[20] = NSCLC, navarixin 100 mg + pembrolizumab 200 mg, Cycle 1 day 1, n=13
[21] = NSCLC, navarixin 100 mg + pembrolizumab 200 mg, Cycle 2 day 1 (steady state), n=11

Question: For CC[C@@H](Nc1c(Nc2cccc(C(=O)N(C)C)c2O)c(=O)c1=O)c1ccc(C)o1 [Navarixin], which tlast [1, 10] is on record?
Answer: The tlast was 8.00 (7.83–10.00) h.

Question: What about the tlast [1, 11] of the same compound?
Answer: Its tlast is 8.01 (6.50–8.70) h.

Question: And the tlast [1, 12]?
Answer: The tlast was 8.00 (7.37–8.08) h.

Question: What about the tlast [1, 13] of the same compound?
Answer: Its tlast is 8.00 (5.93–8.17) h.

Question: What about the tlast [1, 14] of the same compound?
Answer: The tlast was 8.0 (7.27–8.33) h.

Question: What about the tlast [1, 15] of the same compound?
Answer: The tlast was 7.93 (6.00–8.17) h.

Question: And the tlast [1, 16]?
Answer: The tlast was 8.00 (7.12–10.02) h.

Question: What about the tlast [1, 17] of the same compound?
Answer: Its tlast is 8.00 (7.87–8.13) h.

Question: And the tlast [1, 18]?
Answer: The tlast was 8.00 (7.83–8.25) h.

Question: And the tlast [1, 19]?
Answer: Its tlast is 8.00 (7.80–8.08) h.

Question: What about the tlast [1, 20] of the same compound?
Answer: The tlast was 8.00 (6.00–8.07) h.

Question: What about the tlast [1, 21] of the same compound?
Answer: Its tlast is 8.00 (6.03–8.08) h.

Question: What about the “AUC0-∞, navarixin 100 mg versus navarixin 30 mg” value ([1]; across all tumor types) of the same compound?
Answer: The value was “approximately 2.5 fold”.

Question: And the AUC(0-inf) ([1]; CRPC, navarixin 30 mg + pembrolizumab 200 mg, Cycle 1 day 1, n=19)?
Answer: Its AUC(0-inf) is 376 ng·h/mL.

Question: And the AUC(0-t) [1, 10]?
Answer: The AUC(0-t) was 363 ng·h/mL.

Question: What about the AUC(0-inf) [1, 11] of the same compound?
Answer: The AUC(0-inf) was 534 ng·h/mL.

Question: What about the AUC(0-t) [1, 11] of the same compound?
Answer: Its AUC(0-t) is 457 ng·h/mL.

Question: And the Cmax [1, 11]?
Answer: Its Cmax is 191 ng/mL.

Question: And the AUC(0-inf) ([1]; CRPC, navarixin 100 mg + pembrolizumab 200 mg, Cycle 1 day 1, n=18)?
Answer: Its AUC(0-inf) is 954 ng·h/mL.

Question: And the AUC(0-t) [1, 12]?
Answer: The AUC(0-t) was 853 ng·h/mL.

Question: And the AUC(0-inf) ([1]; CRPC, navarixin 100 mg + pembrolizumab 200 mg, Cycle 2 day 1 (steady state), n=11)?
Answer: Its AUC(0-inf) is 1340 ng·h/mL.

Question: What about the AUC(0-t) [1, 13] of the same compound?
Answer: Its AUC(0-t) is 925 ng·h/mL.

Question: What about the Cmax [1, 13] of the same compound?
Answer: The Cmax was 272 ng/mL.

Question: And the AUC(0-inf) ([1]; MSS CRC, navarixin 30 mg + pembrolizumab 200 mg, Cycle 1 day 1, n=17)?
Answer: The AUC(0-inf) was 482 ng·h/mL.

Question: What about the AUC(0-t) [1, 14] of the same compound?
Answer: Its AUC(0-t) is 464 ng·h/mL.

Question: And the Cmax [1, 14]?
Answer: The Cmax was 162 ng/mL.

Question: What about the AUC(0-inf) ([1]; MSS CRC, navarixin 30 mg + pembrolizumab 200 mg, Cycle 2 day 1 (steady state), n=10) of the same compound?
Answer: Its AUC(0-inf) is 584 ng·h/mL.

Question: What about the AUC(0-t) [1, 15] of the same compound?
Answer: The AUC(0-t) was 443 ng·h/mL.

Question: And the Cmax [1, 15]?
Answer: The Cmax was 147 ng/mL.

Question: What about the AUC(0-inf) ([1]; MSS CRC, navarixin 100 mg + pembrolizumab 200 mg, Cycle 1 day 1, n=16) of the same compound?
Answer: The AUC(0-inf) was 1120 ng·h/mL.

Question: And the AUC(0-t) [1, 16]?
Answer: The AUC(0-t) was 1070 ng·h/mL.

Question: And the Cmax [1, 16]?
Answer: The Cmax was 354 ng/mL.

Question: What about the AUC(0-inf) ([1]; MSS CRC, navarixin 100 mg + pembrolizumab 200 mg, Cycle 2 day 1 (steady state), n=9) of the same compound?
Answer: Its AUC(0-inf) is 954 ng·h/mL.

Question: What about the AUC(0-t) [1, 17] of the same compound?
Answer: The AUC(0-t) was 928 ng·h/mL.

Question: And the Cmax [1, 17]?
Answer: Its Cmax is 276 ng/mL.

Question: And the AUC(0-inf) ([1]; NSCLC, navarixin 30 mg + pembrolizumab 200 mg, Cycle 1 day 1, n=10)?
Answer: The AUC(0-inf) was 469 ng·h/mL.

Question: What about the AUC(0-t) [1, 18] of the same compound?
Answer: Its AUC(0-t) is 427 ng·h/mL.

Question: And the Cmax [1, 18]?
Answer: The Cmax was 181 ng/mL.

Question: And the AUC(0-inf) ([1]; NSCLC, navarixin 30 mg + pembrolizumab 200 mg, Cycle 2 day 1 (steady state), n=10)?
Answer: The AUC(0-inf) was 450 ng·h/mL.

Question: What about the AUC(0-t) [1, 19] of the same compound?
Answer: Its AUC(0-t) is 451 ng·h/mL.

Question: What about the Cmax [1, 19] of the same compound?
Answer: The Cmax was 179 ng/mL.

Question: And the AUC(0-inf) ([1]; NSCLC, navarixin 100 mg + pembrolizumab 200 mg, Cycle 1 day 1, n=9)?
Answer: The AUC(0-inf) was 1230 ng·h/mL.

Question: And the AUC(0-t) [1, 20]?
Answer: The AUC(0-t) was 1140 ng·h/mL.

Question: And the Cmax [1, 20]?
Answer: The Cmax was 324 ng/mL.

Question: And the AUC(0-inf) ([1]; NSCLC, navarixin 100 mg + pembrolizumab 200 mg, Cycle 2 day 1 (steady state), n=7)?
Answer: Its AUC(0-inf) is 1360 ng·h/mL.

Question: What about the AUC(0-t) [1, 21] of the same compound?
Answer: The AUC(0-t) was 1080 ng·h/mL.

Question: And the Cmax [1, 21]?
Answer: Its Cmax is 338 ng/mL.

Question: And the Cmax ([1]; male, CRPC, navarixin 30 mg + pembrolizumab 200 mg, Cycle 1 day 1, n=20)?
Answer: Its Cmax is 156 ng/mL.

Question: And the Cmax ([1]; male, CRPC, navarixin 100 mg + pembrolizumab 200 mg, Cycle 1 day 1, n=20)?
Answer: The Cmax was 298 ng/mL.

Question: And the “Geometric mean trough concentration” value ([1]; navarixin 30 mg, steady state)?
Answer: The value was 7.71 ng/mL.

Question: What about the “Geometric mean trough concentration” value ([1]; navarixin 100 mg, steady state) of the same compound?
Answer: Its value is 14.5 ng/mL.

Question: And the “Steady-state exposure, 100-mg dose compared with 30-mg dose” value ([1]; steady state)?
Answer: Its value is “approximately 2.5 fold”.

Question: And the “Effect on neutrophil counts” value [2]?
Answer: The value was “reductions in absolute neutrophil count (ANC) as well as sputum neutrophil count”.

Question: What about the “Effect on neuroendocrine lineage plasticity and enzalutamide resistance” value [3] of the same compound?
Answer: Its value is “reversed neuroendocrine lineage plasticity and enzalutamide resistance”.

Question: And the “Effect on tumor growth” value (CRC)?
Answer: The value was “inhibited tumor growth”.

Question: And the “Effect on tumor growth” value (melanoma)?
Answer: The value was “inhibited tumor growth”.

Question: And the “Effect on colony formation” value [4]?
Answer: The value was “inhibited colony formation”.

Question: And the “Effect on colony formation” value [5]?
Answer: The value was “inhibited colony formation”.

Question: What about the “Effect on apoptosis of malignant cells” value (liver metastases) of the same compound?
Answer: Its value is “induced apoptosis”.

Question: For CC(C)Cc1ccc([C@@H](C)C(=O)NS(C)(=O)=O)cc1 [reparixin], which “Benefit of combination therapy compared with paclitaxel alone” value [6] is on record?
Answer: Its value is “no benefit”.

Question: Which results are given for pembrolizumab?
Answer: ORR [7]: 5%; ORR [8]: 0%; ORR [9]: 23%
